Measurements as given in US20230279495A1, “MOLECULAR SIGNATURES OF RADIATION SENSITIVITY IN TUMORS, AND METHODS OF USE THEREOF” (MEMORIAL SLOAN KETTERING CANCER CENTER, priority 2019, published 2023).

Key:
[1] = system: DSB repair pathways (NHEJ, MMEJ, HR) at the AAVS1 locus in U2OS cells; experiment: Cas9 assay (DSBR-Seq): NHEJ, MMEJ and HR quantified by sequencing repair events at a site-directed DSB; type: cell-based
Description: FIG. 4. A-G. E7 expression shifts DNA double strand break repair pathway choice towards MMEJ. (FIG. 4 A) Schematic of DSBR-Seq Assay. The sequencing reads are classified into NHEJ (<5 bp deletion) in (FIG. 4 B), MMEJ (>5 bp deletion with at least 2 bp MH) in (FIG. 4 C) and HR (substitutions from HR donor) in (FIG. 4 D). The DNApk inhibitor […] was used at 1 μM (micromolar) concentration. (FIG. 4 E) cNHEJ measured as a fraction of mutant reads with deletion sizes less than 5 bp. (FIG. 4 F) E7 expression favors mutant reads with deletion sizes larger than 5 bp representing DSBs repaired by MMEJ. (FIG. 4 G) E7 expression results in lower deletion frequency of small deletions near the double strand break. Results represent the mean of 3 independent experiments+/−the standard error of the mean. * represents a p-vale of <0.05.
To measure DSB repair pathway tradeoffs within an endogenous genomic locus, we used the Cas9 endonuclease to create a site-directed DSB at the AAVS1 locus, chosen because of its characterization as a “safe” genomic locus for integration. Cas9 creates a blunt-ended DSB and repair events at the breaksite can be cataloged in a pool of cells using PCR amplification of a region surrounding the breaksite and massively parallel sequencing to quantify repair outcomes. […] NHEJ is measured with sequencing events with small (1-5) base pair deletions whereas MMEJ is quantified using sequencing events with large deletions and microhomology at the breaksite. All three pathways are thereby quantifiable in a single set of sequencing data in a single pool of cells (FIG. 4 A). […]
To quantify NHEJ, MMEJ and HR at an endogenous breaksite, a Cas9 and gRNA expression plasmid and a donor template oligonucleotide was transfected into U2OS cells with and without E7 expressed. A PCR product surrounding the breaksite was sequenced using Illumina-based NGS technology and the pattern of deletions at the breaksite was analyzed and quantified according to methods described within the Example 2 (SI appendix). […]

[2] = biological target: Rb (retinoblastoma protein, RB1) (human) (UniProt P06400); experiment: cell-based or functional assay
Sequence of UniProt P06400 (P06400 2-928 limits assumed): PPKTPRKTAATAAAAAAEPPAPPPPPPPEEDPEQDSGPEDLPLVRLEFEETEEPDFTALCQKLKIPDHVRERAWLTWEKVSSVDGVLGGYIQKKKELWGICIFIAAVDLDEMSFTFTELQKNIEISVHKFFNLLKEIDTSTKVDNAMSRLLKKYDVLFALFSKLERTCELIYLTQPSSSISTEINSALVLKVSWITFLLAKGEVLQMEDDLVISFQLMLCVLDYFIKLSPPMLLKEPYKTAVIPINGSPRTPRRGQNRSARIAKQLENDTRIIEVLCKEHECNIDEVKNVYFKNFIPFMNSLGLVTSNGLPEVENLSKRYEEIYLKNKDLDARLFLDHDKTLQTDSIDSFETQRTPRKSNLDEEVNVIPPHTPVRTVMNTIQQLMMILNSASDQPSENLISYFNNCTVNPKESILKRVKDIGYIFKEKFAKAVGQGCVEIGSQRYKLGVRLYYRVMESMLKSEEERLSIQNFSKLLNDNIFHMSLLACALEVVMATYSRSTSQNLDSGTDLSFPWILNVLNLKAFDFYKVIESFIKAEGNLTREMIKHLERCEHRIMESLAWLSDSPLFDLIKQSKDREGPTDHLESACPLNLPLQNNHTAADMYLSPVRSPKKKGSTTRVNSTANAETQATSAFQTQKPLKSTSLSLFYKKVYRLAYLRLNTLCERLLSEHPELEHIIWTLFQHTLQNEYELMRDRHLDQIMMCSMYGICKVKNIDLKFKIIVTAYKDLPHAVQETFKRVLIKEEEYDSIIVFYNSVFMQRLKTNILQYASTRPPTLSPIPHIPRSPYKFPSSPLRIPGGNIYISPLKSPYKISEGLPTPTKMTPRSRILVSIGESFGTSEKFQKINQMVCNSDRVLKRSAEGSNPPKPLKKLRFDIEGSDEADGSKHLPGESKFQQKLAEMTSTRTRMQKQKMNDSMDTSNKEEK

Row | Molecule | small deletions (1-5 base pairs), reflective of NHEJ ([1]; inhibitor at 1 μM (FIG. 4 B)) | larger deletions (>5 bp) with microhomology (≥2 bp) (MMEJ) ([1]; inhibitor at 1 μM (FIG. 4 C)) | HR (substitutions from HR donor) ([1]; inhibitor at 1 μM (FIG. 4 D)) | MMEJ activity (percentage of GFP positive cells, U2OS EJ2-GFP reporter, against empty vector) [2] [%] | decrease in NHEJ activity (percentage of GFP positive cells, U2OS EJ5-GFP reporter, against empty vector) [2] [%]
1 | O=c1cc(N2CCOCC2)oc2c(-c3cccc4c3sc3ccccc34)cccc12 [Nu7441] | decrease | increase | increase |  | 
2 | HPV16 E7 oncoprotein (from UniProt P03129 1-98) |  |  |  | 42 | 31
